Reference: patent publication US20220289708A1, “SUBSTITUTED N-PHENYL URACILS, SALTS THEREOF AND THEIR USE AS HERBICIDAL AGENTS” (Bayer Aktiengesellschaft, priority 2019, published 2022)

Tests used:
Format in all cases: in vivo
Oryza sativa = assay: Post-emergence crop plant compatibility
Method: a. Post-Emergence Herbicidal Action and Crop Plant Compatibility
(§1) Seeds of monocotyledonous and dicotyledonous weeds and crop plants were placed in sandy loam in plastic or wood-fiber pots, covered with soil and cultivated in a greenhouse under controlled growth conditions. 2 to 3 weeks after sowing, the test plants were treated at the one-leaf stage. The compounds of the invention, formulated in the form of wettable powders (WP) or as emulsion concentrates (EC), were then sprayed onto the green parts of the plants as aqueous suspension or emulsion with addition of 0.5% additive at a water application rate of 600 l/ha (converted). After the test plants had been kept in the greenhouse under optimum growth conditions for about 3 weeks, the activity of the preparations was rated visually in comparison to untreated controls. For example, 100% activity=the plants have died, 0% activity=like control plants.
Tables A16 to A19 below show the crop plant compatibilities of selected compounds of the general formula (I) according to Tables I.1 to I.36 at an application rate corresponding to 5 g/ha or 20 g/ha, which were obtained in experiments according to the experimental procedure mentioned above. Here, the observed effects on selected crop plants are stated in comparison to the untreated controls (values in %).

Pharbitis purpurea = assay: Post-emergence herbicidal action; conditions: application rate 20 g/ha, rated visually after about 3 weeks vs untreated controls
Method: as §1, with “a. Post-Emergence Herbicidal Action and Crop Plant Compatibility Seeds” for “Seeds”, “plants. Tables A1 to A15 below show the effects of selected compounds of the general formula (I) according to Tables I.1 to I.36 on various harmful plants and at an application rate corresponding to 20 g/ha and less, which were obtained by the experimental procedure mentioned above.” for “plants.”

Abutilon theophrasti = assay: Post-emergence herbicidal action; conditions: application rate 20 g/ha, rated visually after about 3 weeks vs untreated controls
Method: as §1, with “a. Post-Emergence Herbicidal Action and Crop Plant Compatibility Seeds” for “Seeds”, “plants. Tables A1 to A15 below show the effects of selected compounds of the general formula (I) according to Tables I.1 to I.36 on various harmful plants and at an application rate corresponding to 20 g/ha and less, which were obtained by the experimental procedure mentioned above.” for “plants.”

Avena fatua = assay: Post-emergence herbicidal action; conditions: application rate 20 g/ha, rated visually after about 3 weeks vs untreated controls
Method: as §1, with “a. Post-Emergence Herbicidal Action and Crop Plant Compatibility Seeds” for “Seeds”, “plants. Tables A1 to A15 below show the effects of selected compounds of the general formula (I) according to Tables I.1 to I.36 on various harmful plants and at an application rate corresponding to 20 g/ha and less, which were obtained by the experimental procedure mentioned above.” for “plants.”

Viola tricolor = assay: Post-emergence herbicidal action; conditions: application rate 20 g/ha
Method: as §1, with “a. Post-Emergence Herbicidal Action and Crop Plant Compatibility Seeds” for “Seeds”, “plants. Tables A1 to A15 below show the effects of selected compounds of the general formula (I) according to Tables I.1 to I.36 on various harmful plants and at an application rate corresponding to 20 g/ha and less, which were obtained by the experimental procedure mentioned above.” for “plants.”

Veronica persica = assay: Post-emergence herbicidal action; conditions: application rate 20 g/ha
Method: as §1, with “a. Post-Emergence Herbicidal Action and Crop Plant Compatibility Seeds” for “Seeds”, “plants. Tables A1 to A15 below show the effects of selected compounds of the general formula (I) according to Tables I.1 to I.36 on various harmful plants and at an application rate corresponding to 20 g/ha and less, which were obtained by the experimental procedure mentioned above.” for “plants.”

Amaranthus retroflexus = assay: Post-emergence herbicidal action; conditions: application rate 20 g/ha, rated visually after about 3 weeks vs untreated controls
Method: as §1, with “a. Post-Emergence Herbicidal Action and Crop Plant Compatibility Seeds” for “Seeds”, “plants. Tables A1 to A15 below show the effects of selected compounds of the general formula (I) according to Tables I.1 to I.36 on various harmful plants and at an application rate corresponding to 20 g/ha and less, which were obtained by the experimental procedure mentioned above.” for “plants.”

Setaria viridis = assay: Post-emergence herbicidal action; conditions: application rate 20 g/ha, rated visually after about 3 weeks vs untreated controls
Method: as §1, with “a. Post-Emergence Herbicidal Action and Crop Plant Compatibility Seeds” for “Seeds”, “plants. Tables A1 to A15 below show the effects of selected compounds of the general formula (I) according to Tables I.1 to I.36 on various harmful plants and at an application rate corresponding to 20 g/ha and less, which were obtained by the experimental procedure mentioned above.” for “plants.”

Matricaria inodora = assay: Post-emergence herbicidal action; conditions: application rate 20 g/ha, rated visually after about 3 weeks vs untreated controls
Method: as §1, with “a. Post-Emergence Herbicidal Action and Crop Plant Compatibility Seeds” for “Seeds”, “plants. Tables A1 to A15 below show the effects of selected compounds of the general formula (I) according to Tables I.1 to I.36 on various harmful plants and at an application rate corresponding to 20 g/ha and less, which were obtained by the experimental procedure mentioned above.” for “plants.”

Digitaria sanguinalis = assay: Post-emergence herbicidal action; conditions: application rate 20 g/ha, rated visually after about 3 weeks vs untreated controls
Method: as §1, with “a. Post-Emergence Herbicidal Action and Crop Plant Compatibility Seeds” for “Seeds”, “plants. Tables A1 to A15 below show the effects of selected compounds of the general formula (I) according to Tables I.1 to I.36 on various harmful plants and at an application rate corresponding to 20 g/ha and less, which were obtained by the experimental procedure mentioned above.” for “plants.”

Alopecurus myosuroides = assay: Post-emergence herbicidal action; conditions: application rate 20 g/ha, rated visually after about 3 weeks vs untreated controls
Method: as §1, with “a. Post-Emergence Herbicidal Action and Crop Plant Compatibility Seeds” for “Seeds”, “plants. Tables A1 to A15 below show the effects of selected compounds of the general formula (I) according to Tables I.1 to I.36 on various harmful plants and at an application rate corresponding to 20 g/ha and less, which were obtained by the experimental procedure mentioned above.” for “plants.”

Echinochloa crus-galli = assay: Post-emergence herbicidal action; conditions: application rate 20 g/ha, rated visually after about 3 weeks vs untreated controls
Method: as §1, with “a. Post-Emergence Herbicidal Action and Crop Plant Compatibility Seeds” for “Seeds”, “plants. Tables A1 to A15 below show the effects of selected compounds of the general formula (I) according to Tables I.1 to I.36 on various harmful plants and at an application rate corresponding to 20 g/ha and less, which were obtained by the experimental procedure mentioned above.” for “plants.”

Lolium rigidum = assay: Post-emergence herbicidal action; conditions: application rate 20 g/ha, rated visually after about 3 weeks vs untreated controls
Method: as §1, with “a. Post-Emergence Herbicidal Action and Crop Plant Compatibility Seeds” for “Seeds”, “plants. Tables A1 to A15 below show the effects of selected compounds of the general formula (I) according to Tables I.1 to I.36 on various harmful plants and at an application rate corresponding to 20 g/ha and less, which were obtained by the experimental procedure mentioned above.” for “plants.”

Polygonum convolvulus = assay: Post-emergence herbicidal action; conditions: application rate 20 g/ha
Method: as §1, with “a. Post-Emergence Herbicidal Action and Crop Plant Compatibility Seeds” for “Seeds”, “plants. Tables A1 to A15 below show the effects of selected compounds of the general formula (I) according to Tables I.1 to I.36 on various harmful plants and at an application rate corresponding to 20 g/ha and less, which were obtained by the experimental procedure mentioned above.” for “plants.”

Structure (SMILES)	Oryza sativa (efficacy in %) (Oryza sativa; application rate 5 g/ha) [%]	Oryza sativa (efficacy in %) (Oryza sativa; application rate 20 g/ha) [%]	Pharbitis purpurea (efficacy in %) (Pharbitis purpurea) [%]	Abutilon theophrasti (efficacy in %) (Abutilon theophrasti) [%]	Avena fatua (efficacy in %) (Avena fatua) [%]	Viola tricolor (efficacy in %) (Viola tricolor) [%]	Veronica persica (efficacy in %) (Veronica persica) [%]	Amaranthus retroflexus (efficacy in %) (Amaranthus retroflexus) [%]	Setaria viridis (efficacy in %) (Setaria viridis) [%]	Matricaria inodora (efficacy in %) (Matricaria inodora) [%]	Digitaria sanguinalis (efficacy in %) (Digitaria sanguinalis) [%]	Alopecurus myosuroides (efficacy in %) (Alopecurus myosuroides) [%]	Echinochloa crus-galli (efficacy in %) (Echinochloa crus-galli) [%]	Lolium rigidum (efficacy in %) (Lolium rigidum) [%]	Polygonum convolvulus (efficacy in %) (Polygonum convolvulus) [%]
CCOC(COC(=O)COc1ncccc1Oc1cc(-n2c(=O)cc(C(F)(F)F)n(C)c2=O)c(F)cc1[N+](=O)[O-])OCC [I.14-422]	–	20	100	100	90	100	100	100	100	90	100	100	100	80	100
Cn1c(C(F)(F)F)cc(=O)n(-c2cc(Oc3cccnc3OCC(=O)OC3COC3)c(Br)cc2F)c1=O [I.16-115]	20	–	100	100	80	100	100	100	100	100	100	100	100	100	100
CCS(=O)(=O)NCCOC(=O)COc1ncccc1Oc1cc(-n2c(=O)cc(C(F)(F)F)n(C)c2=O)c(F)cc1Br [I.16-421]	20	–	100	100	100	100	100	100	100	100	100	100	100	90	100
CCOC(COC(=O)COc1ncccc1Oc1cc(-n2c(=O)cc(C(F)(F)F)n(C)c2=O)c(F)cc1Br)OCC [I.16-422]	20	–	100	100	100	100	100	100	100	100	100	100	100	90	100
COCCOCCOC(=O)COc1ncc(F)cc1Sc1cc(-n2c(=O)cc(C(F)(F)F)n(C)c2=O)c(F)cc1Cl [I.31-23, 2-(2-Methoxyethoxy)ethyl {[3-({5-[3-methyl-2,6-dioxo-4-(trifluoromethyl)-3,6-dihydropyrimidin-1(2H)-yl]-2-chloro-4-fluorophenyl}sulfanyl)-5-fluoropyridin-2-yl]oxy}acetate]	–	20	100	100	–	100	100	100	100	100	100	90	100	–	–
COCCOC(=O)COc1ncccc1Oc1cc(-n2c(=O)cc(C(F)(F)F)n(C)c2=O)c(F)cc1C#N [I.35-1]	–	–	100	100	100	100	100	100	100	100	100	100	100	80	100
COCCOC(=O)COc1ncc(F)cc1Oc1cc(-n2c(=O)cc(C(F)(F)F)n(C)c2=O)c(F)cc1Cl [I.36-1]	–	–	100	100	100	100	100	100	100	100	100	100	100	90	100
Cn1c(C(F)(F)F)cc(=O)n(-c2cc(Oc3cc(F)cnc3OCC(=O)OCc3ccccn3)c(Cl)cc2F)c1=O [I.36-286]	–	–	100	100	80	100	100	100	100	90	100	100	100	80	100

Second part, led by results:

Oryza sativa (efficacy in %) (Oryza sativa; application rate 5 g/ha) [%]	Oryza sativa (efficacy in %) (Oryza sativa; application rate 20 g/ha) [%]	Structure (SMILES)	Pharbitis purpurea (efficacy in %) (Pharbitis purpurea) [%]	Abutilon theophrasti (efficacy in %) (Abutilon theophrasti) [%]	Avena fatua (efficacy in %) (Avena fatua) [%]	Viola tricolor (efficacy in %) (Viola tricolor) [%]	Veronica persica (efficacy in %) (Veronica persica) [%]	Amaranthus retroflexus (efficacy in %) (Amaranthus retroflexus) [%]	Setaria viridis (efficacy in %) (Setaria viridis) [%]	Matricaria inodora (efficacy in %) (Matricaria inodora) [%]	Digitaria sanguinalis (efficacy in %) (Digitaria sanguinalis) [%]	Alopecurus myosuroides (efficacy in %) (Alopecurus myosuroides) [%]	Echinochloa crus-galli (efficacy in %) (Echinochloa crus-galli) [%]	Lolium rigidum (efficacy in %) (Lolium rigidum) [%]	Polygonum convolvulus (efficacy in %) (Polygonum convolvulus) [%]
20	–	Cn1c(C(F)(F)F)cc(=O)n(-c2cc(Sc3cccnc3OCC(=O)OC3COC3)c(Cl)cc2F)c1=O [I.1-115]	100	100	80	100	100	100	100	100	100	100	100	80	–
20	–	Cn1c(C(F)(F)F)cc(=O)n(-c2cc(Sc3cccnc3OCC(=O)OCC#N)c(Cl)cc2F)c1=O [I.1-176]	100	100	90	100	100	100	100	100	100	100	100	80	–
0	–	Cn1c(C(F)(F)F)cc(=O)n(-c2cc(Sc3cccnc3OCC(=O)OCc3ccccn3)c(Cl)cc2F)c1=O [I.1-286]	100	100	80	100	100	100	–	100	–	100	100	80	–
–	20	COCCOC(=O)COc1ncc(F)cc1Sc1cc(-n2c(=O)cc(C(F)(F)F)n(C)c2=O)c(F)cc1Cl [I.31-1]	100	100	–	100	100	100	100	100	100	90	100	80	–
